These molecules were tested against MAPK14 (human) (UniProt Q16539) (assay: Inhibition of MAPK14 Kinase Activity).
Sequence of MAPK14 (human) (Q16539 whole entry, looked up): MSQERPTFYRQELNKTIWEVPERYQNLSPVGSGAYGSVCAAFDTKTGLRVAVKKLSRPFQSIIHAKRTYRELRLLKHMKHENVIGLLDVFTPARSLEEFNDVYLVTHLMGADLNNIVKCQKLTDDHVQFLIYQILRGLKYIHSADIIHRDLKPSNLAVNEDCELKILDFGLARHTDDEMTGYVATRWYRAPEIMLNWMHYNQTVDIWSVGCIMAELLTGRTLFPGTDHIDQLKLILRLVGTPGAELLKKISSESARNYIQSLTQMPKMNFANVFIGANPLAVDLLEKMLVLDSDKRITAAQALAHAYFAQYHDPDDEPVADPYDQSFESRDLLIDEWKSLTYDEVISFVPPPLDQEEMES

IC50, ≤ 10 µM:
O=C1CCC(Cc2ccccc2Cl)CN1c1c(Cl)csc1Cl (stereo not drawn), CN(C)CCCc1cc(Cl)c(N2CC(Cc3ccc(F)cc3F)CCC2=O)c(Cl)c1 (stereo not drawn), Nc1ccc(Cl)c(N2CC(Sc3ccc(F)cc3F)CCC2=O)c1Cl (stereo not drawn), O=C1CCC(Oc2ccc(F)cc2F)CN1c1c(Cl)ccc(CO)c1Cl (stereo not drawn), Nc1cc(Cl)c(N2CC(Cc3ccc(F)cc3F)COC2=O)c(Cl)c1 (stereo not drawn), CCOC(=O)CNc1ccc(Cl)c(N2CC(Cc3ccc(F)cc3F)CCC2=O)c1 (stereo not drawn), O=C1CCC(Sc2ccc(F)cc2F)CN1c1c(Cl)cnc(CO)c1Cl (stereo not drawn), Cc1cc(C(=O)NCCCN(C)C)cc(C)c1N1CC(Cc2ccc(F)cc2F)CCC1=O (stereo not drawn), O=C1CCC(Sc2ccccc2F)CN1C1C(Cl)CCCC1Cl (stereo not drawn), Cc1ccccc1SC1CCC(=O)N(c2c(Cl)cncc2Cl)C1 (stereo not drawn), CC(C)(C)OC(=O)N(CCN)c1cc(Cl)c(N2CC(Cc3ccc(F)cc3F)CCC2=O)c(Cl)c1 (stereo not drawn), O=C(Cc1ccccc1)Nc1ccc(Cl)c(N2CC(Cc3ccc(F)cc3F)SCC2=O)c1Cl (stereo not drawn), Cc1cc(/C=C/C(=O)O)cc(C)c1N1CC(Cc2ccc(F)cc2F)CCC1=O (stereo not drawn), O=C1CCC(Cc2ccc(F)cc2F)CN1c1c(Cl)sc(O)c1Cl (stereo not drawn), O=C1SCC(Cc2ccc(F)cc2F)CN1c1c(Cl)ccc(CO)c1Cl (stereo not drawn), CN1CC(Cc2ccc(F)cc2F)CN(c2c(Cl)cc(CO)cc2Cl)C1=O (stereo not drawn), O=C(Cc1ccccc1)Nc1cc(Cl)c(N2CC(Oc3ccc(F)cc3F)CCC2=O)c(Cl)n1 (stereo not drawn), O=C1SCC(Cc2ccc(F)cc2F)CN1c1c(Cl)cc(CO)cc1Cl (stereo not drawn), O=C1SCC(Cc2ccccc2)CN1c1c(Cl)cccc1Cl (stereo not drawn), O=Cc1ccccc1CC1CCC(=O)N(c2c(Cl)cccc2Cl)C1 (stereo not drawn), O=C1CCC(Oc2ccc(F)cc2F)CN1c1c(Cl)ccnc1Cl (stereo not drawn), COc1ccc(OC2CCC(=O)N(c3c(Cl)cncc3Cl)C2)cc1 (stereo not drawn), Cc1ccccc1OC1CCC(=O)N(c2c(Cl)csc2Cl)C1 (stereo not drawn), O=C1SCC(Cc2cc(F)cc(F)c2)CN1c1c(Cl)cccc1Cl (stereo not drawn), CN1CC(Cc2cccc3ccccc23)CN(c2c(Cl)cccc2Cl)C1=O (stereo not drawn), O=C1CCC(Oc2ccc(F)cc2F)CN1c1c(Cl)cnc(CO)c1Cl (stereo not drawn), CNc1cc(Cl)c(N2CC(Oc3ccc(F)cc3F)CCC2=O)c(Cl)n1 (stereo not drawn), O=C1CCC(Cc2cc(Cl)cc(Cl)c2)CN1c1c(Cl)cccc1Cl (stereo not drawn), CCN(CC)CC(=O)Nc1cc(Cl)c(N2CC(Cc3ccc(F)cc3F)CCC2=O)c(Cl)c1 (stereo not drawn), Cc1cc(C)cc(CC2CN(c3c(Cl)cccc3Cl)C(=O)CS2)c1 (stereo not drawn), Cc1cc(CCCCCO)cc(C)c1N1CC(Cc2ccc(F)cc2F)CCC1=O (stereo not drawn), N#CCCc1cc(Cl)c(N2CC(Cc3ccc(F)cc3F)CCC2=O)c(Cl)c1 (stereo not drawn), O=C(Cc1ccccc1)NC1CC(Cl)C(N2CC(Cc3ccc(F)cc3F)CCC2=O)C(Cl)C1 (stereo not drawn), CN(C)CCNC(=O)CNc1cc(Cl)c(N2CC(Cc3ccc(F)cc3F)CCC2=O)c(Cl)c1 (stereo not drawn), O=C1CCC(Sc2ccc(Cl)cc2Cl)CN1c1c(Cl)ccnc1Cl (stereo not drawn), COC(=O)/C=C/c1ccccc1CC1CCC(=O)N(c2c(C)cccc2C)C1 (stereo not drawn), CC(=O)N1CCC(Nc2cc(Cl)c(N3CC(Cc4ccc(F)cc4F)CCC3=O)c(Cl)c2)CC1 (stereo not drawn), Cc1ccc(OC2CCC(=O)N(c3c(Cl)cncc3Cl)C2)cc1 (stereo not drawn), CNc1cc(Cl)c(N2CC(Cc3ccc(F)cc3F)SCC2=O)c(Cl)c1 (stereo not drawn), Cn1nc(C(C)(C)C)cc1NC(=O)NCc1ccccc1CC1CCC(=O)N(c2c(Cl)cccc2Cl)C1 (stereo not drawn), CNc1cc(Cl)c(N2CC(Sc3ccc(F)cc3F)CCC2=O)c(Cl)c1 (stereo not drawn), O=C1CCC(Cc2ccc(F)cc2F)CN1C1C(Cl)CCC(O)C1Cl (stereo not drawn), O=C1CCC(Sc2ccccc2)CN1c1c(Cl)csc1Cl (stereo not drawn), O=C1CCC(Cc2ccc(F)cc2)CN1c1c(Cl)ccnc1Cl (stereo not drawn), O=C1CCC(Sc2ccc(F)cc2F)CN1c1c(Cl)ncc(CO)c1Cl (stereo not drawn), O=C1NCC(Cc2ccc(F)cc2F)CN1c1c(Cl)cc(Br)cc1Cl (stereo not drawn), O=C1CCC(Cc2ccc(F)cc2F)CN1c1c(Cl)ncc(O)c1Cl (stereo not drawn), Nc1ccc(Cl)c(N2CC(Cc3ccc(F)cc3F)SCC2=O)c1Cl (stereo not drawn), Cc1ccc(CC2CCC(=O)N(c3c(Cl)cncc3Cl)C2)cc1 (stereo not drawn), O=C(O)CNc1ccc(Cl)c(N2CC(Cc3ccc(F)cc3F)CCC2=O)c1 (stereo not drawn), O=C1COC(Cc2ccccc2)CN1c1c(Cl)cccc1Cl (stereo not drawn), CC(=O)Nc1cc(Cl)c(N2CC(Cc3ccc(F)cc3F)CCC2=O)c(Cl)n1 (stereo not drawn), Cc1ccc(CC2CCC(=O)N(c3c(Cl)ccnc3Cl)C2)cc1 (stereo not drawn), O=C1CCC(Sc2cc(Cl)cc(Cl)c2)CN1c1c(Cl)ccnc1Cl (stereo not drawn), O=C1CCC(Sc2ccc(Cl)cc2)CN1c1c(Cl)cccc1Cl (stereo not drawn), CN(C)NC(=O)CNc1cc(Cl)c(N2CC(Cc3ccc(F)cc3F)CCC2=O)c(Cl)c1 (stereo not drawn), CN1CC(Cc2ccc(Cl)cc2Cl)CN(c2c(Cl)cccc2Cl)C1=O (stereo not drawn), O=C(Cc1ccccc1)Nc1cc(Cl)c(N2CC(Oc3ccc(F)cc3F)CCC2=O)c(Cl)c1 (stereo not drawn), O=C1CCC(Oc2ccccc2)CN1c1c(Cl)ccnc1Cl (stereo not drawn), Cc1ccccc1CC1CNC(=O)N(c2c(Cl)cccc2Cl)C1 (stereo not drawn), O=C1CSC(Cc2cc(F)cc(F)c2)CN1c1c(Cl)cccc1Cl (stereo not drawn), O=C1CCC(Oc2ccc(F)cc2F)CN1c1c(Cl)cccc1Cl (stereo not drawn), CC(=O)Nc1ccc(Cl)c(N2CC(Cc3ccc(F)cc3F)CCC2=O)c1Cl (stereo not drawn), O=C1CCC(Cc2ccc(Cl)cc2Cl)CN1c1c(Cl)cncc1Cl (stereo not drawn), O=C1CCC(Sc2ccc(Cl)cc2)CN1C1C(Cl)CCCC1Cl (stereo not drawn), CNC1CCC(Cl)C(N2CC(Cc3ccc(F)cc3F)CCC2=O)C1Cl (stereo not drawn), CC(=O)Nc1ccc(Cl)c(N2CC(Cc3ccc(F)cc3F)SCC2=O)c1Cl (stereo not drawn), O=C1CCC(Cc2ccc(F)cc2F)CN1c1c(Cl)cc(C#CCO)cc1Cl (stereo not drawn), O=C1CSC(Cc2ccccc2F)CN1c1c(Cl)cccc1Cl (stereo not drawn), O=C1NCC(Cc2ccc(F)cc2)CN1c1c(Cl)cccc1Cl (stereo not drawn), Cc1ccc(CC2CCC(=O)N(c3c(Cl)csc3Cl)C2)c(C)c1 (stereo not drawn), O=C1CCC(Sc2ccccc2Cl)CN1c1c(Cl)ccnc1Cl (stereo not drawn), O=C1CCC(Cc2cc(F)cc(F)c2)CN1c1c(Cl)csc1Cl (stereo not drawn), O=C1CCC(Cc2ccccc2F)CN1C1C(Cl)CCCC1Cl (stereo not drawn), COc1ccc(OC2CCC(=O)N(c3c(Cl)csc3Cl)C2)cc1 (stereo not drawn), O=C1NCC(Cc2ccc(Cl)cc2Cl)CN1c1c(Cl)cccc1Cl (stereo not drawn), CN(C)CCNc1cc(Cl)c(N2CC(Cc3ccccc3F)CCC2=O)c(Cl)c1 (stereo not drawn), O=C1CCC(Oc2ccccc2)CN1C1C(Cl)CCCC1Cl (stereo not drawn), O=C1CCC(Cc2ccc(C(F)(F)F)cc2)CN1c1c(Cl)cccc1Cl (stereo not drawn), O=C1CCC(Sc2ccc(F)cc2F)CN1c1c(Cl)csc1Cl (stereo not drawn), Cc1cc(C#CCCN2CCN(C)CC2)cc(C)c1N1CC(Cc2ccc(F)cc2F)CCC1=O (stereo not drawn), Nc1cnc(Cl)c(N2CC(Sc3ccc(F)cc3F)CCC2=O)c1Cl (stereo not drawn), O=C1CCC(Oc2cc(F)cc(F)c2)CN1c1c(Cl)cncc1Cl (stereo not drawn), COc1ccc(SC2CCC(=O)N(c3c(Cl)ccnc3Cl)C2)cc1 (stereo not drawn), O=C1COC(Cc2ccc3ccccc3c2)CN1c1c(Cl)cccc1Cl (stereo not drawn), O=C1CCC(Cc2ccccc2Cl)CN1c1c(Cl)cncc1Cl (stereo not drawn), O=C1CCC(Oc2cccc3ccccc23)CN1c1c(Cl)cccc1Cl (stereo not drawn), O=C1CC/C(=C\c2ccc(F)cc2F)CN1c1c(Cl)cccc1Cl, Cc1cc(C(=O)N2CCN(C)CC2)cc(C)c1N1CC(Cc2ccc(F)cc2F)CCC1=O (stereo not drawn), O=C1CCC(Cc2ccc(Cl)cc2)CN1c1c(Cl)cncc1Cl (stereo not drawn), CN1CC(Cc2ccccc2F)CN(c2c(Cl)cccc2Cl)C1=O (stereo not drawn), O=C1CCC(Oc2ccccc2F)CN1c1c(Cl)ccnc1Cl (stereo not drawn), O=C1CCC(Oc2ccc(Cl)cc2)CN1c1c(Cl)csc1Cl (stereo not drawn), CN(C)CCCCc1cc(Cl)c(N2CC(Cc3ccc(F)cc3F)CCC2=O)c(Cl)c1 (stereo not drawn), O=C(Cc1ccccc1)Nc1ncc(Cl)c(N2CC(Oc3ccc(F)cc3F)CCC2=O)c1Cl (stereo not drawn), CNc1cc(Cl)c(N2CC(Cc3ccc(F)cc3F)OCC2=O)c(Cl)c1 (stereo not drawn), COc1ccc(SC2CCC(=O)N(c3c(Cl)csc3Cl)C2)cc1 (stereo not drawn), O=C1CCC(Cc2ccccc2)CN1c1c(Cl)cncc1Cl (stereo not drawn), Nc1cc(Cl)c(N2CC(Cc3ccc(F)cc3F)CSC2=O)c(Cl)c1 (stereo not drawn), CC(=O)NC1CCC(Cl)C(N2CC(Cc3ccc(F)cc3F)CCC2=O)C1Cl (stereo not drawn), Cc1cc(C#CCCO)cc(C)c1N1CC(Cc2ccc(F)cc2F)CCC1=O (stereo not drawn), Cc1nc(CNc2cc(Cl)c(N3CC(Cc4ccc(F)cc4F)CCC3=O)c(Cl)c2)c[nH]1 (stereo not drawn), COc1ccccc1SC1CCC(=O)N(c2c(Cl)cccc2Cl)C1 (stereo not drawn), Cc1ccccc1SC1CCC(=O)N(C2C(Cl)CCCC2Cl)C1 (stereo not drawn), CC(C)(C)NC(=O)CNc1cc(Cl)c(N2CC(Cc3ccc(F)cc3F)CCC2=O)c(Cl)c1 (stereo not drawn), O=C1CCC(Sc2ccc(F)cc2)CN1c1c(Cl)ccnc1Cl (stereo not drawn), COc1ccc(CC2CCC(=O)N(c3c(Cl)cncc3Cl)C2)cc1 (stereo not drawn), Cc1cc(/C=C/CCN(C)C)cc(C)c1N1CC(Cc2ccc(F)cc2F)CCC1=O (stereo not drawn), CNc1ccc(Cl)c(N2CC(Cc3ccc(F)cc3F)CNC2=O)c1Cl (stereo not drawn), CCOC(=O)CCNC(=O)c1cc(C)c(N2CC(Cc3ccc(F)cc3F)CCC2=O)c(C)c1 (stereo not drawn), O=C1CCC(Cc2ccc(F)cc2F)CN1c1c(Cl)cc(O)nc1Cl (stereo not drawn), Cc1cc(N)cc(C)c1N1CC(Cc2ccc(F)cc2F)CCC1=O (stereo not drawn), O=C1CCC(Cc2ccc(F)cc2F)CN1c1c(Cl)cc(N2C(=O)CCC2=O)cc1Cl (stereo not drawn)

Source: the Kinase Knowledgebase extract (Sharma et al. 2016)
